{"source": "patent US20160303205A1", "about": "“Combination Therapies for Lysosomal Storage Diseases” (Washington University, priority 2015, published 2016)", "key": {"Twitcher mice [1]": {"system": "Twitcher mice", "assay": "Lifespan of Twitcher mice (Kaplan-Meier survival)", "format": "in vivo, mouse", "from_the_text": "Treated and untreated Twitcher mice as well as untreated controls were used in all experiments. […] The experimental and control animals were randomly assigned to groups for analysis at pre-determined time points (n=3-6 animals per time point) or for life span and behavioral analyses (n=10-14 animals per group). The number of animals per group was based on previous experience with this model and the specific assays as well as power calculations. Quantitative biochemical analyses (GALC activity, psychosine measurements, cytokine/chemokine levels) were performed in duplicate on tissues from 3-6 animals, depending on the assay. Semi-quantitative histomorphometry was performed on at least 3 representative sections per animal from at least 3 animals per group. The photography settings were kept constant for all images. Analysis of variance (ANOVA) was used for group comparisons with Bonferroni correction for pair-wise comparisons. Student's t-test was used to compare the means of two groups. Significant differences in life span were determined by log-rank test. […]\nAnimals were housed at Washington University School of Medicine. […] Genotypes were determined on postnatal day 1 by PCR as previously described (Sakai et al. 1996 J Neurochem 66:1118-1124; Lin et al., 2005 Molecular Therapy 12:422-430.). […]\nLifespan was recorded as the age of the animal on the date of death or sacrifice. […]"}, "Twitcher mice [2]": {"system": "Twitcher mice", "details": "Twitcher mouse; literature (LeVine 2000; Biswas and LeVine 2002); cited from earlier work"}}, "note": "Like-named read-outs stand apart in the source and are kept apart here."}
{"smiles": "N[C@H]1CONC1=O", "note": "[L-cycloserine]", "values": [{"measurement": "median lifespan", "setting": "Twitcher mice [1]", "value": "~57", "unit": "days"}, {"measurement": "median lifespan", "setting": "Twitcher mice [1]; untreated Twitcher 39.5 d", "value": 57, "unit": "days"}, {"measurement": "lifespan", "setting": "Twitcher mice [2]", "value": "~57", "unit": "days"}]}
